Data as given in patent publication US11780893B2, “Kv1.3 blockers” (Zealand Pharma A/S, priority 2019, dated 2023).
pIC50: −log10 of the molar value. Read-outs that look alike come from different tables or passages of the source. Bridge positions count the residues as written; N and C are the ends. Square brackets hold non-standard residues; d marks the D form. Peptide text beside a SMILES is read from it. Nle = CCCC[C@H](N)C(=O)O

Tests used:
[1] = target: T1, human Kv1.3 voltage-gated K+ channel (Homo sapiens, UniProt P22001); assay: cell-based
T1 construct: host or cells: CHO-DUKX

[2] = target: T2, Kv1.1 (Homo sapiens, UniProt Q09470); assay: cell-based; details: for IC50: CHO cells, whole-cell patch clamp, read-out: Potency IC50 (nM) Kv1.1; for Selectivity Kv1.1/Kv1.3: ratio IC50[Kv1.1]/IC50[Kv1.3]
T2 construct: expressed in transfected cells; host or cells: Chinese Hamster Ovary (CHO)

[3] = target: T3, Kv1.2 (Homo sapiens, UniProt P16389); assay: cell-based; details: for IC50: CHO cells, whole-cell patch clamp, read-out: Potency IC50 (nM) Kv1.2
T3 construct: expressed in transfected cells; host or cells: Chinese Hamster Ovary (CHO)

[4] = target: T4, Kv1.3 (Homo sapiens, UniProt P22001); assay: cell-based; details: for IC50: CHO cells, whole-cell patch clamp, read-out: Potency IC50 (nM) Kv1.3
T4 construct: expressed in transfected cells; host or cells: Chinese Hamster Ovary (CHO)

[5] = target: T5, Kv1.6 (Homo sapiens, UniProt P17658); assay: cell-based; details: for IC50: CHO cells, whole-cell patch clamp, read-out: Potency IC50 (nM) Kv1.6
T5 construct: expressed in transfected cells; host or cells: Chinese Hamster Ovary (CHO)

[6] = test system: Human peripheral blood mononuclear cells (PBMCs); assay: IL-2 release from anti-CD3 stimulated human PBMCs (Example 4a); type: cell-based; details: for pIC50: geometric mean, at least 4 replicates, read-out: anti-CD3 PBMC/IL-2 IC50
Experimental: Human peripheral blood mononuclear cells (PBMCs) were used to assess the effects of Kv1.3 blockers on T-cell activation as determined by IL-2 (cytokine) release after stimulation with anti-CD3.
Human PBMCs were obtained from Precision for Medicine (Frederick, Md.). Cells from 5 donors were used. Plate-bound anti-CD3 was used to stimulate bulk T cells in the PBMC preparations. Briefly, 96-well plates were coated with anti-CD3 antibody for 2 hrs at 37° C., using 50 μL of a 0.5 μg/mL anti-CD3 solution diluted in 1×PBS. Thereafter the plates were washed twice.
Finally, 1×10^5 PBMCs were added to each well in a volume of 100 μL, giving a final volume of 200 μL per well. The plates were incubated for 20-24 hours in a 37° C./5% CO2 incubator. After centrifugation of the plates, 25 μl supernatant was transferred to IL-2 detection plates (MSD Human IL-2 Tissue Culture Kit, cat #K151AHB-2) and IL-2 was measures as described by the manufacturer (Meso Scale Discovery, Rockville, Md., USA).
Results are shown in Table 4a as geometric mean of IC50 values obtained from anti-CD3 stimulated human PBMC assays. All values derive from at least 4 replicates.

[7] = test system: delayed-type hypersensitivity (DTH) ear swelling response; type: in vivo, rat
[8] = target: Rat whole blood (Rattus norvegicus, UniProt P15384)
[9] = in vivo; details: male, rat, sc, 70 nmol/kg
[10] = inhibition of thallium flux, CHO-DUKX cells with human Kv1.3, read-out: IC50

T3 sequence (P16389 whole entry): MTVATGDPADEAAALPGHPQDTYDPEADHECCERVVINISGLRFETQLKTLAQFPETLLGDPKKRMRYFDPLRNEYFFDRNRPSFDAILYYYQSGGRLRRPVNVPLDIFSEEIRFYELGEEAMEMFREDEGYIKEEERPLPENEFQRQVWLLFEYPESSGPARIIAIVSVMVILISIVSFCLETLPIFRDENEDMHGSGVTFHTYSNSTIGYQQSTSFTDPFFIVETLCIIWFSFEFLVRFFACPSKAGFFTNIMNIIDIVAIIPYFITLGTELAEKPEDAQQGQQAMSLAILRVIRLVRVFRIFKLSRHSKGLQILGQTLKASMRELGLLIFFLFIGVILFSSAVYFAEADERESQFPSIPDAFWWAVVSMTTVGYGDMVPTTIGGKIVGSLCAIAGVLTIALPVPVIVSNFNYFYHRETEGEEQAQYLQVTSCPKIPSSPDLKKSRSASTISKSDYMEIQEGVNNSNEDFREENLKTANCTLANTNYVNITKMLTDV
T5 sequence (P17658 whole entry): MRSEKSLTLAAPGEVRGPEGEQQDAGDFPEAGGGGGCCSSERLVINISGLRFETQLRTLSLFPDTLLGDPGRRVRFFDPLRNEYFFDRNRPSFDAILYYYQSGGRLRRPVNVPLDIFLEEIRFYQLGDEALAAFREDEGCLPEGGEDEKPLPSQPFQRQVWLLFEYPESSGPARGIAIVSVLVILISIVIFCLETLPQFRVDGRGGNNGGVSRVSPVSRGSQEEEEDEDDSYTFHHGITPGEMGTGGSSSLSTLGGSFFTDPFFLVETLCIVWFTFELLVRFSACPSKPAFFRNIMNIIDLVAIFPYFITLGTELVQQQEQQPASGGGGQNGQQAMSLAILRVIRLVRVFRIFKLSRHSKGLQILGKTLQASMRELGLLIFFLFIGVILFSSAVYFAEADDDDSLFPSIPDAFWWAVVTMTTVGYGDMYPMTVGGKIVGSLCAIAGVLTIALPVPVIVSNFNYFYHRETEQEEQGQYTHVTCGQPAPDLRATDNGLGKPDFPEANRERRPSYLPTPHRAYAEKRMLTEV
T4 sequence (P22001 whole entry): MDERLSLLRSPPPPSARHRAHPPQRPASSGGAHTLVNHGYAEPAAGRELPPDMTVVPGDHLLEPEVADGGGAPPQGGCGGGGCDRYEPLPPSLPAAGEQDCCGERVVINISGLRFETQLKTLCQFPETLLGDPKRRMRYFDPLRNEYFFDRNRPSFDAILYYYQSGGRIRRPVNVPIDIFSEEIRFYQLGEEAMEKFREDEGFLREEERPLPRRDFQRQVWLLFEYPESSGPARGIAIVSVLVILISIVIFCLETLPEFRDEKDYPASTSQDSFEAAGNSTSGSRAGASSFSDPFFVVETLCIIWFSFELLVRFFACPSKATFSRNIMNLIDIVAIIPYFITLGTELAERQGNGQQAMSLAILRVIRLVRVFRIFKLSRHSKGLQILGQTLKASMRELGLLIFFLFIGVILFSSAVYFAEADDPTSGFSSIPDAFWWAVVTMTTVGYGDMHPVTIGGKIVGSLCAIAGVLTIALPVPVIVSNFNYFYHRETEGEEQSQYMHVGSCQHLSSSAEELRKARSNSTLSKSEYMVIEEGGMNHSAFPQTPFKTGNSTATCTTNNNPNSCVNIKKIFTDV
T1 sequence (P22001 whole entry): as above
T2 sequence (Q09470 whole entry): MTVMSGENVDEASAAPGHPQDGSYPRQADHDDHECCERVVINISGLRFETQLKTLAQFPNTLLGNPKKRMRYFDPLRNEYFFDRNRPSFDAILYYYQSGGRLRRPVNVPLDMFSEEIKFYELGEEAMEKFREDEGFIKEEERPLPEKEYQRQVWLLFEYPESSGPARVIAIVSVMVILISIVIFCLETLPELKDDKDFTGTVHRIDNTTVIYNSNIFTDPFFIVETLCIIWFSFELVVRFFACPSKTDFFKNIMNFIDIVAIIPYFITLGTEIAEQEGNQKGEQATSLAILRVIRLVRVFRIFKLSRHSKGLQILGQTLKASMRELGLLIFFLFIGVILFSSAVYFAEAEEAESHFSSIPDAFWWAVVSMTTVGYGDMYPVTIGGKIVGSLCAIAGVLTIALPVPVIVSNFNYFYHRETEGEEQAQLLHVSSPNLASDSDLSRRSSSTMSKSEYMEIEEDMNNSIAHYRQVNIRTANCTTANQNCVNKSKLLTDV
Sequence of Rat whole blood (P15384 whole entry): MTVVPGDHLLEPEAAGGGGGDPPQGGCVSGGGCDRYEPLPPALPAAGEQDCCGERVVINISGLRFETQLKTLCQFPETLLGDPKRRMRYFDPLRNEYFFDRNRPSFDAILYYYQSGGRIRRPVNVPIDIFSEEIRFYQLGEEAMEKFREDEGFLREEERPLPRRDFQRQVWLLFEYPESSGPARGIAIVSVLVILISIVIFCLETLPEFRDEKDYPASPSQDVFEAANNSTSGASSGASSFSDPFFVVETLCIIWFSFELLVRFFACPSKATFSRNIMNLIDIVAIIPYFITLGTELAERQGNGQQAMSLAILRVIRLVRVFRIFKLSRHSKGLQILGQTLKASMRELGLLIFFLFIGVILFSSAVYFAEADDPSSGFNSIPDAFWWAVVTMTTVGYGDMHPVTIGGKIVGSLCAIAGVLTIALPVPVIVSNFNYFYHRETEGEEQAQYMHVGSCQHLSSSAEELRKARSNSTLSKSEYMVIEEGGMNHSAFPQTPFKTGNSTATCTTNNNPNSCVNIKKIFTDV

| Structure (SMILES) | pIC50 [1, 10] | IC50 [2] [nM] | Selectivity Kv1.1/Kv1.3 [2] | IC50 [3] [nM] | IC50 [4] [nM] | IC50 [5] [nM] | pIC50 [6] | pIC50 [8] | AUC(0-inf) [9] [µM·h] | Cmax [9] [nM] | half-life [9] [min] | further results |
| --- | --- | --- | --- | --- | --- | --- | --- | --- | --- | --- | --- | --- |
| CCCC[C@@H]1NC(=O)[C@@H]2CSSC[C@H](NC(=O)[C@H](CCCNC(=N)N)NC(=O)[C@H](CCSC)NC(=O)[C@H](CC(=O)O)NC(=O)[C@H](CCSC)NC(=O)[C@@H](N)CC(N)=O)C(=O)N[C@@H](CO)C(=O)N[C@@H](C)C(=O)N[C@@H](CO)C(=O)N[C@@H](C(C)C)C(=O)N[C@@H](CCC(=O)O)C(=O)N[C@H]3CSSC[C@H](NC(=O)[C@H](CCCCN)NC(=O)[C@H](CCCCN)NC(=O)[C@H](CC(N)=O)NC1=O)C(=O)N[C@@H](CCCCN)C(=O)N[C@H](C(=O)N[C@@H](Cc1ccc(O)cc1)C(=O)N1CCC[C@H]1C(=O)N[C@@H](CCCNC(=N)N)C(N)=O)CSSC[C@H](NC(=O)[C@H](CCCCN)NC(=O)[C@H](CCC(N)=O)NC(=O)[C@H](CCCCN)NC3=O)C(=O)N[C@@H](CC(C)C)C(=O)N[C@@H](CCCCN)C(=O)N[C@@H](C)C(=O)N[C@@H]([C@@H](C)CC)C(=O)NCC(=O)N[C@@H](CO)C(=O)N[C@@H]([C@@H](C)CC)C(=O)N[C@@H](Cc1ccccc1)C(=O)NCC(=O)N[C@@H](CCCCN)C(=O)N2 [Compound 16] (H-NMDMRCSASVECKQKCLKAIGSIFGKC[Nle]NKKCKCYPR-NH2; disulfide 6-27, 12-32, 16-34) | 9.85 | > 3000 | >12600 | 133 | 0.24 | 2460 | 10.30 |  |  |  |  |  |
| CC[C@H](C)[C@@H]1NC(=O)[C@H](C)NC(=O)[C@H](CC(=O)O)NC(=O)[C@H](CC(C)C)NC(=O)[C@@H]2CSSC[C@@H](C(=O)N[C@@H](Cc3ccc(O)cc3)C(=O)N3CCC[C@H]3C(=O)N[C@@H](CCCNC(=N)N)C(N)=O)NC(=O)[C@H](CCCCN)NC(=O)[C@@H]3CSSC[C@H](NC(=O)[C@H](CCC(=O)O)NC(=O)[C@H](C(C)C)NC(=O)[C@H](CO)NC(=O)[C@H](C)NC(=O)[C@H](CO)NC(=O)[C@@H](NC(=O)[C@H](CCCNC(=N)N)NC(=O)[C@H](CCSC)NC(=O)[C@H](CC(=O)O)NC(=O)[C@H](CCSC)NC(=O)[C@@H](N)CC(N)=O)CSSC[C@H](NC(=O)[C@H](CCCCN)NC(=O)CNC(=O)[C@H](Cc4ccccc4)NC(=O)[C@H]([C@@H](C)CC)NC(=O)[C@H](CO)NC(=O)CNC1=O)C(=O)N[C@@H](CCSC)C(=O)N[C@@H](CC(N)=O)C(=O)N[C@@H](CCCCN)C(=O)N[C@@H](CCCCN)C(=O)N3)C(=O)N[C@@H](CCCCN)C(=O)N[C@@H](CCC(N)=O)C(=O)N[C@@H](CCCCN)C(=O)N2 [Compound 20] (H-NMDMRCSASVECKQKCLDAIGSIFGKCMNKKCKCYPR-NH2; disulfide 6-27, 12-32, 16-34) | 9.89 | > 3000 | >14300 | 99 | 0.21 | 2530 | 10.00 |  |  |  |  |  |
| CC[C@H](C)[C@@H]1NC(=O)[C@H](C)NC(=O)[C@H](CCCCN)NC(=O)[C@H](CC(C)C)NC(=O)[C@@H]2CSSC[C@@H](C(=O)N[C@@H](Cc3ccc(O)cc3)C(=O)N3CCC[C@H]3C(=O)N[C@@H](CCCNC(=N)N)C(N)=O)NC(=O)[C@H](CCCCN)NC(=O)[C@@H]3CSSC[C@H](NC(=O)[C@H](CCC(=O)O)NC(=O)[C@H](C(C)C)NC(=O)[C@H](CO)NC(=O)[C@H](C)NC(=O)[C@H](CO)NC(=O)[C@@H](NC(=O)[C@H](CCCNC(=N)N)NC(=O)[C@H](CCSC)NC(=O)[C@H](CC(=O)O)NC(=O)[C@H](CCSC)NC(=O)[C@@H](N)CC(N)=O)CSSC[C@H](NC(=O)[C@H](CCCCN)NC(=O)CNC(=O)[C@H](Cc4ccccc4)NC(=O)[C@H](CCCNC(=N)N)NC(=O)[C@H](CO)NC(=O)CNC1=O)C(=O)N[C@@H](CCSC)C(=O)N[C@@H](CC(N)=O)C(=O)N[C@@H](CCCCN)C(=O)N[C@@H](CCCCN)C(=O)N3)C(=O)N[C@@H](CCCCN)C(=O)N[C@@H](CCC(N)=O)C(=O)N[C@@H](CCCCN)C(=O)N2 [Compound 35] (H-NMDMRCSASVECKQKCLKAIGSRFGKCMNKKCKCYPR-NH2; disulfide 6-27, 12-32, 16-34) | 10.11 | > 3000 | >15000 | 18 | 0.2 | 192 | 10.00 |  |  |  |  |  |
| CCCC[C@H](NC(=O)[C@@H]1CCCN1)C(=O)N[C@@H](CCC(=O)O)C(=O)N[C@@H](CCCC)C(=O)N[C@@H](CCCNC(=N)N)C(=O)N[C@H]1CSSC[C@@H]2NC(=O)[C@H](CCCCN)NC(=O)CNC(=O)[C@H](Cc3ccccc3)NC(=O)[C@H]([C@@H](C)CC)NC(=O)[C@H](CO)NC(=O)CNC(=O)[C@H]([C@@H](C)CC)NC(=O)[C@H](C)NC(=O)[C@H](C)NC(=O)[C@H](CC(C)C)NC(=O)[C@@H]3CSSC[C@@H](C(=O)N[C@@H](Cc4ccc(O)cc4)C(=O)N4CCC[C@H]4C(=O)N[C@@H](CCCNC(=N)N)C(=O)O)NC(=O)[C@H](CCCCN)NC(=O)[C@H](CSSC[C@H](NC(=O)[C@H](CCC(=O)O)NC(=O)[C@H](C(C)C)NC(=O)[C@H](CO)NC(=O)[C@H](C)NC(=O)[C@H](CO)NC1=O)C(=O)N[C@@H](CCCCN)C(=O)N[C@@H](CCC(N)=O)C(=O)N[C@@H](CCCCN)C(=O)N3)NC(=O)[C@H](CCCCN)NC(=O)[C@H](CCCCN)NC(=O)[C@H](CC(N)=O)NC(=O)[C@H](CCCC)NC2=O [Compound 97] (H-P[Nle]E[Nle]RCSASVECKQKCLAAIGSIFGKC[Nle]NKKCKCYPR-OH; disulfide 6-27, 12-32, 16-34) | 9.82 | > 3000 | >9100 | 1120 | 0.33 | > 3000 |  | ≥ 9.00 | 0.112 | 52.6 | 62.4 | Selectivity Kv1.6/Kv1.3 ([5]; ratio IC50[Kv1.6]/IC50[Kv1.3]): >9100; % inhibition of ear thickness (AUC of Δ ear thickness 0-48 hours) ([7]; Exp #6, Kv1.3 blocker 100 nmol/kg SC 24 hrs prior to KLH challenge, CsA 10 mg/kg per os): 42.5%; % inhibition of ear thickness (AUC of Δ ear thickness 0-48 hours) ([7]; Exp #8, Kv1.3 blocker 100 nmol/kg SC 24 hrs prior to KLH challenge, CsA 10 mg/kg per os): 37.7% |
| CCCC[C@@H]1NC(=O)[C@@H]2CSSC[C@H](NC(=O)[C@H](CCCNC(=N)N)NC(=O)[C@H](CCCC)NC(=O)[C@H](CCC(=O)O)NC(=O)[C@@H](NC(=O)[C@@H]3CCCN3)[C@@H](C)CC)C(=O)N[C@@H](CO)C(=O)N[C@@H](C)C(=O)N[C@@H](CO)C(=O)N[C@@H](C(C)C)C(=O)N[C@@H](CCC(=O)O)C(=O)N[C@H]3CSSC[C@H](NC(=O)[C@H](CCCCN)NC(=O)[C@H](CCCCN)NC(=O)[C@H](CC(N)=O)NC1=O)C(=O)N[C@@H](CCCCN)C(=O)N[C@H](C(=O)N[C@@H](Cc1ccc(O)cc1)C(=O)N1CCC[C@H]1C(=O)N[C@@H](CCCNC(=N)N)C(=O)O)CSSC[C@H](NC(=O)[C@H](CCCCN)NC(=O)[C@H](CCC(N)=O)NC(=O)[C@H](CCCCN)NC3=O)C(=O)N[C@@H](CC(C)C)C(=O)N[C@@H](C)C(=O)N[C@@H](C)C(=O)N[C@@H]([C@@H](C)CC)C(=O)NCC(=O)N[C@@H](CO)C(=O)N[C@@H]([C@@H](C)CC)C(=O)N[C@@H](Cc1ccccc1)C(=O)NCC(=O)N[C@@H](CCCCN)C(=O)N2 [Compound 101] (H-PIE[Nle]RCSASVECKQKCLAAIGSIFGKC[Nle]NKKCKCYPR-OH; disulfide 6-27, 12-32, 16-34) |  |  |  |  |  |  |  | ≥ 9.00 | 0.132 | 58.6 | 54.6 | pIC50 [1]: 9.74; pIC50 [2]: < 5.52; pIC50 [3]: 5.71; pIC50 [4]: 9.46; pIC50 [5]: < 5.52; % inhibition of ear thickness (AUC of Δ ear thickness 0-48 hours) ([7]; rat, in vivo): 44.5% |
| CC[C@H](C)[C@H](N)C(=O)N[C@@H](CC(N)=O)C(=O)N[C@H](C(=O)N[C@@H](CCCCN)C(=O)N[C@H]1CSSC[C@@H]2NC(=O)[C@H](CCCCN)NC(=O)CNC(=O)[C@H](Cc3ccccc3)NC(=O)[C@H](CCCNC(=N)N)NC(=O)[C@H](CCSC)NC(=O)CNC(=O)[C@H](C)NC(=O)[C@H](CC(=O)O)NC(=O)[C@H](CCCCN)NC(=O)[C@@H]3CSSC[C@@H](C(=O)N[C@@H](Cc4ccc(O)cc4)C(=O)N[C@@H](CO)C(=O)O)NC(=O)[C@H](CCCNC(=N)N)NC(=O)[C@H](CSSC[C@H](NC(=O)[C@H](CCC(N)=O)NC(=O)[C@H](CCC(N)=O)NC(=O)[C@@H]4CCCN4C(=O)[C@H](CC(C)C)NC(=O)[C@H](CO)NC1=O)C(=O)N[C@@H]([C@@H](C)CC)C(=O)N[C@@H](CCCCN)C(=O)N1CCC[C@H]1C(=O)N3)NC(=O)[C@H](CCCCN)NC(=O)[C@H](CCCCN)NC(=O)[C@H](CC(N)=O)NC(=O)[C@H](CCSC)NC2=O)C(C)C [Moka1, reference compound] |  |  |  |  |  |  |  |  |  |  |  | IC50 of Moka1 relative to IC50 of test compounds and ShK186 (IL-2 secretion) ([6]; test compound IC50 lower than that of Moka1): 10-100 fold |
